Measurements: patent publication US6451836B1, “Method of inhibiting liver glycogen phosphorylase with 2-alkylpyrrolidines” (Novo Nordisk A/S, priority 1995, dated 2002)
Like-named read-outs stand apart in the source and are kept apart here.

What was measured:
Rat hepatocytes = assay: baseline and glucagon stimulated glucose production from cultured liver cells; assay type: cell-based; details: for Glucose production without glucagon: relative to the basal glucose production (no addition 100%); for Glucose production without glucagon / Glucose production with glucagon (0.5 nM): 70 minutes; for Glucose production with glucagon (0.5 nM): relative to the basal glucose production (no addition 233%); for inhibition of hepatocyte glucose production (in words): basal and glucagon stimulated
Protocol: During the last 24 hours, the hepatocytes were cultured in the presence of high levels of insulin (5 nM) and glucose (15 mM), which result in the incorporation of glucose into glycogen. Therefore, at the time of the experiment, the cells mimic livers from fed animals. Experiments were initiated after 48 hours of culture by 2 times wash of cells and addition of a 20 mM HEPES experimental buffer including balanced salts, but without glucose. The test compound was added simultaneously with the experimental buffer. To some cultures, glucagon (0.5 nM) was added after 10 minutes in order to stimulate glucose production from liver cells. The glucose released into the media, reflecting the glucose production of the liver cells, was measured 70 minutes after the start of the experiment and standardized to cellular DNA content.

α-1,6-glucosidase [1] = target: T1, α-1,6-glucosidase (Homo sapiens, UniProt P35573); details: From: Fleet et al. (Tetrahedron 20 (1986), 5685); read-out: 1,6-glucosidase, concentration resulting in half maximal activity (I.C.50); cited from earlier work
T1 sequence (P35573 whole entry): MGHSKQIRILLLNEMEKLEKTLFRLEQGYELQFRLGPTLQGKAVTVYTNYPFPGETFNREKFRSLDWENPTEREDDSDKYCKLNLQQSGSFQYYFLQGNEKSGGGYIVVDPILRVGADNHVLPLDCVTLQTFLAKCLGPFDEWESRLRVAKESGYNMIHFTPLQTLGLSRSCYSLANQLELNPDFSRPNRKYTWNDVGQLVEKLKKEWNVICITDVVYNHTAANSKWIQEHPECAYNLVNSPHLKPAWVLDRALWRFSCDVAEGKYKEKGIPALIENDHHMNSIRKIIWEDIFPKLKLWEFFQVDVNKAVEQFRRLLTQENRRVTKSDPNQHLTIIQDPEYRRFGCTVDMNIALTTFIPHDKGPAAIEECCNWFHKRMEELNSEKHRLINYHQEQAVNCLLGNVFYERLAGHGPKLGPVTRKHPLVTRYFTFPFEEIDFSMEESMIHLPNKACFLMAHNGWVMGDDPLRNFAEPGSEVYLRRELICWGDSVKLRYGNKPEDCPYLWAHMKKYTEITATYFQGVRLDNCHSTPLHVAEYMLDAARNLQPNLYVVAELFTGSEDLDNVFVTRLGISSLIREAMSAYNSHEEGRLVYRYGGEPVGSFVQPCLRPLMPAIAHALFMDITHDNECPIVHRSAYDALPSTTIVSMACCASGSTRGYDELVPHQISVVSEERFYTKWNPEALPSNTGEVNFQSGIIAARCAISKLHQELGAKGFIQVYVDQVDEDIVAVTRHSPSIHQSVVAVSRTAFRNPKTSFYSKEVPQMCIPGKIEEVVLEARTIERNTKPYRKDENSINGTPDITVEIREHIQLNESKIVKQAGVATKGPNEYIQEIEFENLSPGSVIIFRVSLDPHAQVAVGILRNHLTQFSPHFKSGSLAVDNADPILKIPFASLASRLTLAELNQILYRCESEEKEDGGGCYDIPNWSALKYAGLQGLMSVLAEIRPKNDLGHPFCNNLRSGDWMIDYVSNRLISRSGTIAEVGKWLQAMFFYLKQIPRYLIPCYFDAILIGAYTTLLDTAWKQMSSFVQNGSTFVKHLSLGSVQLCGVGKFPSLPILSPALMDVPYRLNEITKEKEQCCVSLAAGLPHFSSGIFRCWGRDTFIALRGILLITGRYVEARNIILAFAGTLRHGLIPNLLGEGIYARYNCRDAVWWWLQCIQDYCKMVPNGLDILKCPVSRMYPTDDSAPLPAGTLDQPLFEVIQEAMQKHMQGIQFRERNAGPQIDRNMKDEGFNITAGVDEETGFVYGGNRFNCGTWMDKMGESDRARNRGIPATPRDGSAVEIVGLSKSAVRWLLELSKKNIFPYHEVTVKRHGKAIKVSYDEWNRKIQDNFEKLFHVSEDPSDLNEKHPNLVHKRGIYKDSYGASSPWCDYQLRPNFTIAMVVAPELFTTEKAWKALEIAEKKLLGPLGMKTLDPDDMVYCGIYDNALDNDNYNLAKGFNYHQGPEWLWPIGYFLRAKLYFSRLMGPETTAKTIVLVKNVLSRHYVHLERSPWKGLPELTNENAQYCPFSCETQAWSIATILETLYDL

female ob/OB mice = assay: glucagon mediated increase in blood glucose in mice; assay type: in vivo; details: for Delta plasma glucose: glucagon s.c., female ob/OB mice fasted 3 hours, averages ± S.D., N = 5, control 6.3 ± 1.0; for reduction of blood glucose (in words): glucagon mediated increase in blood glucose in mice, Table 1
Protocol: For in vivo studies, female ob/OB mice (20 g) fasted for 3 hours were used. Test compounds or NaCl (0.9%; controls) were administered intraveneously (hereinafter designated i.v.). Glucagon were administered subcutaneously (herein-after designated s.c.) in order to increase hepatic glucose output derived from glycogen. Blood samples were drawn from the orbital vain and analyzed for glucose using a glucose oxidase method.

Phosphorylase = target: T2, Phosphorylase (Rattus norvegicus, UniProt P09811); assay: activity of phosphorylase; assay type: biochemical; details: read-out: Phosphorlyase, concentration resulting in half maximal activity (I.C.50)
T2 sequence (P09811 2-850): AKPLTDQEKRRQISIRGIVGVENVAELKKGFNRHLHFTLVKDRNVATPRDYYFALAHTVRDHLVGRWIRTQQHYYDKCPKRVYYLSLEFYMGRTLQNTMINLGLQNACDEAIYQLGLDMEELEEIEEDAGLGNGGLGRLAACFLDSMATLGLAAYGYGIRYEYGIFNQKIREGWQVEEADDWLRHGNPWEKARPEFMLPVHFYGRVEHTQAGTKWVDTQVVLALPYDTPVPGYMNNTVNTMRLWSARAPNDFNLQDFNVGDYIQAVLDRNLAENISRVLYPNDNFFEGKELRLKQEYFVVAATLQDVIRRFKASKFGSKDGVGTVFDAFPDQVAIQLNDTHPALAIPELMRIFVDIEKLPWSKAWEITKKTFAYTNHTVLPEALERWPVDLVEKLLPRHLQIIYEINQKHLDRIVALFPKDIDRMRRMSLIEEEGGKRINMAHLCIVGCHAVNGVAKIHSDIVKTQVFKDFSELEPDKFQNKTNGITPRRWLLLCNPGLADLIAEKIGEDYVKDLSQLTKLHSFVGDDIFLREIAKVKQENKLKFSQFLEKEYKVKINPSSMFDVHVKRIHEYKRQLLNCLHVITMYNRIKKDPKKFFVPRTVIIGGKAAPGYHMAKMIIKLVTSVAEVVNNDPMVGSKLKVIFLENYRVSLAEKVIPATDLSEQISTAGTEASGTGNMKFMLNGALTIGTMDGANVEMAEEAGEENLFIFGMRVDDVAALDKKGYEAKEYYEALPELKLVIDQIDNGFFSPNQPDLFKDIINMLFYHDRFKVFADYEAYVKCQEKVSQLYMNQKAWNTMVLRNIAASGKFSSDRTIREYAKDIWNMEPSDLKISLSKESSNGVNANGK
Protocol: Phosphorylase was either purchased from Sigma or extracted from rat livers according to Stalmans et. al. (Eur.J.Biochem. 49 (1974), 415). The activity of phosphorylase was determined as described by Bergmeyer (1983; in: Meth. of Enzymatic Analysis, 2, 293-295, Weinheim, (ed.) Verlag Chemie).

α-1,6-glucosidase [2] = target: T1, α-1,6-glucosidase; assay: activity of the glycogen debranching enzyme, α-1,6-glucosidase; assay type: biochemical; details: read-out: 1,6-glucosidase, concentration resulting in half maximal activity (I.C.50)
Protocol: The activity of the glycogen debranching enzyme, α-1,6-glucosidase, was determined as described by Brown and Brown (1966; in : Meth. in Enzymology, 8, 515-524, Neufeld and Ginsburg (Eds.) Academic Press).

type 2 diabetic patients = details: Sels et al. (Netherland J.Med. 44 (1994), 198); cited from earlier work

| SMILES | Glucose production without glucagon (Rat hepatocytes; 1 μM) [%] | Glucose production with glucagon (0.5 nM) (Rat hepatocytes; 1 μM) [%] | inhibition of hepatocyte glucose production (in words) (Rat hepatocytes) | IC50 (α-1,6-glucosidase [1]) [nM] | Delta plasma glucose (female ob/OB mice; 8 mg/kg i.v.) [mmol/L] | reduction of blood glucose (in words) (female ob/OB mice) | Glucose production without glucagon (Rat hepatocytes; 50 μM) [%] | Glucose production with glucagon (0.5 nM) (Rat hepatocytes; 50 μM) [%] | IC50 (Phosphorylase) [nM] | Delta plasma glucose (female ob/OB mice; 50 mg/kg i.v.) [mmol/L] | IC50 (α-1,6-glucosidase [2]) [nM] | fasting plasma glucose after treatment (in words) (type 2 diabetic patients) |
| --- | --- | --- | --- | --- | --- | --- | --- | --- | --- | --- | --- | --- |
| Cl.OC[C@H]1NC[C@@H](O)[C@@H]1O [Compound 2, (2R,3R,4R)-3,4-Dihydroxy-2-(hydroxymethyl)pyrrolidine, hydrochloride] | 19 | 41 | inhibit basal and glucagon stimulated hepatocyte glucose production | 180 | 0.5 ± 0.6 | potent principle for reducing blood glucose | – | – | – | – | – | – |
| OC[C@H]1NC[C@H](O)[C@@H](O)[C@@H]1O [dNOJ, 1-deoxynojirimycin] | – | – | insufficient to suppress hepatic glucose production | – | – | unable to reduce blood glucose | 92 | 195 | > 200000 | 5.7 ± 1.2 | 1100 | – |
| OCCN1C[C@H](O)[C@@H](O)[C@H](O)[C@H]1CO [miglitol] | – | – | – | – | – | – | – | – | – | – | – | not reduced |
